Reference: PMC9459403, “New inhibitors of cathepsin V impair tumor cell proliferation and elastin degradation and increase immune cell cytotoxicity” (Computational and Structural Biotechnology Journal, 2022)
Marks after values point to notes of the source that are not given here.

Assays:
Format in all cases: biochemical
[1] = molecular target: T1, Cathepsin V (Homo sapiens, UniProt O60911); experiment: Determination of relative inhibition, substrate Z-Phe-Arg-AMC; conditions: inhibitor 50 μM; substrate 2 μM; mean ± SD (n = 2); read-out: Cathepsin V Ri (%) relative inhibition
T1 construct: made in house; host or cells: Pichia pastoris
Method: (§1) Human recombinant cathepsin V was expressed in Pichia Pastoris, and human recombinant cathepsin L was expressed in Escherichia coli, as reported, [51]. To determine the activities of cathepsins V and L, 100 mM acetate buffer (pH 5.5), containing 0.1 % PEG 8000 (Sigma-Aldrich, St. Louis, MO, USA), 5 mM cysteine, and 1.5 mM EDTA was used. Prior to the assay, the enzyme was activated in the assay buffer for 5 min at 37 °C.
(§2) The effect of the inhibitors on cathepsin V and L activity was determined using the substrate Z-Phe-Arg-AMC (Bachem, Bubendorf, Switzerland). The reaction was initiated by adding 90 μL of the activated enzyme (final concentration 2.5 ng/mL and 0.02 nM for cathepsins V and L, respectively) to the wells of a black microtiter plate containing 5 μL of substrate (with a final concentration 2 μM) and 5 μL of inhibitor (with a final concentration of 50 μM). The formation of fluorescent degradation products during the reaction was monitored continuously at 460 nm ± 10 nm with excitation at 380 nm ± 20 nm at 37 °C on a Tecan Infinite M1000 (Mannedorf, Switzerland) spectrofluorometer. All assay mixtures contained 5 % (v/v) DMSO. To prevent false-positive inhibition due to the formation of compound aggregates, 0.01 % Triton X-100 was used. All measurements were performed in triplicate and repeated at least twice. Relative inhibition was calculated using the following equation: relative inhibition (%) = 100(1- vi/vo), where vi and vo denote the reaction velocities in the presence and absence of the inhibitor, respectively.

[2] = molecular target: T2, human recombinant cathepsin L (Homo sapiens, UniProt P07711); experiment: as above; conditions: inhibitor 50 μM; substrate 2 μM; mean ± SD (n = 2); read-out: Cathepsin L Ri (%) relative inhibition
T2 construct: made in house; host or cells: Escherichia coli
Method: as §1, §2

[3] = molecular target: T2, human recombinant cathepsin L; experiment: Determination of Ki values and mode of inhibition; conditions: mean ± SD (n = 2)
Method: as §1
(§3) Inhibition constants were calculated from reaction velocities measured at three substrate concentrations (0.5, 1, and 4 μM) in the presence of inhibitors at seven concentrations (0, 20, 40, 60, 80, 100, and 200 µM). The reaction was initiated by adding 90 μL of enzyme at final concentrations of 2.5 ng/mL and 0.02 nM for cathepsins V and L, respectively, to the wells of a black microtiter plate containing 5 μL of substrate and 5 μL of inhibitor. To evaluate cathepsin V and L activity, the substrate Z-Phe-Arg-AMC was used. The formation of the fluorescent degradation products was monitored as described above. All assay mixtures contained 5 % (v/v) DMSO. All measurements were performed in duplicates and repeated at least twice. The SigmaPlot® 12, Enzyme Kinetics Module™ 1.3 was used to calculate Ki values.

[4] = molecular target: T1, Cathepsin V; experiment: Determination of Ki values and mode of inhibition; conditions: mean ± SD (n = 2)
Method: as §1, §3

[5] = molecular target: T1, Cathepsin V; experiment: Determination of binding reversibility (dilution method); conditions: inhibitor 100 μM, cathepsin V 500 ng/ml
Method: Binding reversibility was determined according to the dilution method, which measures the recovery of enzymatic activity after rapid dilution of the enzyme-inhibitor complex. Cathepsin V (500 ng/ml) was incubated in the assay buffer with the inhibitor (100 μM). Half of the reaction mixture was immediately diluted 100-fold with the assay buffer and added to the wells of a black microplate containing 5 μL of substrate (at a final concentration of 2 μM), and the activity was measured. The other half of the reaction mixture was incubated for 2 h before it was diluted 100-fold, and then the activity was measured. The assay was performed in triplicates and repeated at least two times.

T1 sequence (O60911 114-334): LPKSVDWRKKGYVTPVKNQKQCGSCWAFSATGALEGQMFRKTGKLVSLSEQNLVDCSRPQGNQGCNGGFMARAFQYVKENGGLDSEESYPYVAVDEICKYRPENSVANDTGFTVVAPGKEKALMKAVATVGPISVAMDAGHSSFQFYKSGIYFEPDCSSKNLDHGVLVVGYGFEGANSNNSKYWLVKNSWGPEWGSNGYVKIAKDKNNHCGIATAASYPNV
T2 sequence (P07711 114-333): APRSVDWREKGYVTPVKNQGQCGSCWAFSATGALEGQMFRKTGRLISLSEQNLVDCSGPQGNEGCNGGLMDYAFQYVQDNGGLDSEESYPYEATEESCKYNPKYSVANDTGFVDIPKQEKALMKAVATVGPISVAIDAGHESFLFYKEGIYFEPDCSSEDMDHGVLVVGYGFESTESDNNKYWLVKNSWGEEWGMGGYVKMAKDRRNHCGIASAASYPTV

Compound	inhibition at 50 µM [1] [%]	inhibition at 50 µM [2] [%]	other results
O=C(Nc1cc(Cl)ccc1Cl)c1cnc2n(c1=O)CCS2 [Compound 1]	-5.4 ± 2.4	4.8 ± 3.9	
O=C(NCCN1CCN(c2ccc(Cl)cc2)CC1)[C@H]1CC(=O)N(c2ccccc2)C1 [Compound 8]	-20.3 ± 3.5	-4.4 ± 2.1	
Brc1ccccc1CNc1ncncc1-c1nc(-c2ccsc2)no1 [Compound 11]	-3.1 ± 4.6	6.3 ± 2.6	
CC1Oc2ccccc2OC1C(=O)NCC#CCN1CCc2ccccc2C1 (stereo not shown) [Compound 12]	-9.5 ± 9.2	15.6 ± 1.2	
O=C(NC[C@H]1CCCN1c1ccccc1)c1cccnc1 [Compound 14]	7.8 ± 3.1	13.1 ± 2.6	
Cc1c(C(=O)N2CC(N3CCc4ccccc4C3)C2)cnn1-c1ccccc1 [Compound 15]	-27.6 ± 9.1	-5.4 ± 7.3	
Cc1nccc(O[C@H]2CCN(S(=O)(=O)/C=C/c3ccccc3)C2)n1 [Compound 16]	-6.5 ± 0.9	-1 ± 4.8	
O=C(NCc1nnc2c(C(F)(F)F)cccn12)c1cc2cc(Cl)ccc2[nH]1 [Compound 20]	16.9 ± 0.6	14.5 ± 2.4	
COC(=O)Cc1c[nH]c2ccc(OCC3CO3)cc12 (stereo not shown) [Compound 21]	> 20	15.3 ± 2.9	Ki [4]: 159 ± 32.8 µM; Ki [3]: 236 ± 10.3 µM
O=C(N[C@H]1CCCN(Cc2ccccc2)C1)c1ccc(CN2CCCC2)o1 [Compound 28]	1.1 ± 9	-4.6 ± 5.2	
CN(C)c1ccc(CC(=O)NC2CCCN(Cc3cccnc3)C2)cc1 (stereo not shown) [Compound 30]	-2 ± 3.3	-1.2 ± 0.3	
CCOC(=O)N1CCC(NC(=O)NCc2ccc(OC)cc2)CC1 [Compound 33]	-1.6 ± 6.5	3.4 ± 4.4	
O=C(NCC(O)CN1CCOCC1)c1cc2cc(Br)ccc2[nH]1 (stereo not shown) [Compound 35]	16.6 ± 8.4	12 ± 1.3	
COc1ccc(CNC(=O)N2CCC(C(N)=O)CC2)cc1 [Compound 36]	15.2 ± 10	-0.6 ± 1.7	
CNC(=O)C1(COC)CCCN1C(=O)CN1CCOCC1=O (stereo not shown) [Compound 38]	7.9 ± 0.4	2.3 ± 3.1	
O=C(NCc1ccc(F)cc1)NCC1CCN(C(=O)Oc2ccccc2)CC1 [Compound 41]	17.7 ± 6.1	4.2 ± 0.9	Cathepsin V Ki′ (µM) [4]: 612.5 ± 23.9^e µM; Ki [4]: 612 ± 23.9 µM; Cathepsin L Ki (µM) [3]: n.i.^g; Cathepsin L Ki′ (µM) [3]: n.i.^g
COCCN1CCC(CNC(=O)NCc2ccc(OC)cc2)CC1 [Compound 43]	5.2 ± 1.8	-0.4 ± 2.5	
COc1ccc(CNC(=O)NCC2CCN(C(=O)N(C)C)CC2)cc1 [Compound 46]	12.1 ± 9.8	4.3 ± 4.1	
COc1ccc(CNC(=O)NCC2CCN(C(=O)Oc3ccccc3)CC2)cc1 [Compound 47]	9.5 ± 2.5	4.4 ± 4.6	
COc1ccc(CNC(=O)N2CCC(C(=O)N3CCCCC3)CC2)cc1 [Compound 50]	-2.9 ± 4	13.8 ± 0.5	
O=C(NC(Cc1ccccc1)C(=O)O)C1CCC(CNC(=O)C2Cc3ccccc3CN2)CC1 (stereo not shown) [Compound 51]	-9.8 ± 5.8	-4 ± 7.3	
CC(C)C[C@H](NC(=O)[C@H]1O[C@@H]1C(=O)O)C(=O)NCCCCN=C(N)N [Compound E-64, reference compound]			binding reversibility: cathepsin V activity after 2 h incubation and 100-fold rapid dilution [5]: remained inhibited

Further lines, with some results ahead:

inhibition at 50 µM [1] [%]	inhibition at 50 µM [2] [%]	Compound	other results
16.4 ± 0.3	20 ± 2.2	Cc1ccc(Cl)c2sc(NC(=O)c3ccc(S(=O)(=O)N4CCc5ccccc5C4)cc3)nc12 [Compound 2]	Ki [3]: 162 ± 1.8 µM
	147 ± 88.7	Cc1cc(C)c2sc(NC(=O)c3ccc(S(=O)(=O)N4CCc5ccccc5C4)cc3)nc2c1 [Compound 3]	
> 20	40.3 ± 4.5	COc1ccc(NC(C)=O)cc1NC(=O)c1n[nH]c2ccccc12 [Compound 6]	Ki [4]: 371 ± 86.1 µM; Ki [3]: 635 ± 167 µM
18.9 ± 1.3	17.5 ± 5.3	COc1ccc(-c2cn3c(CCC(=O)Nc4nc5ccccc5s4)csc3n2)cc1 [Compound 9]	
17.8 ± 3.3	21.5 ± 1.2	O=C(NCc1cccc2ccccc12)Nc1ccc2c(c1)CCCN2C(=O)c1cccs1 [Compound 10]	
7.5 ± 5	13.4 ± 1.4	O=C(Nc1ccc(F)cc1)OC1CCCC(NC(=O)c2c(F)cccc2F)C1 (stereo not shown) [Compound 13]	
-2.4 ± 5.6	9.4 ± 9.5	Cc1cc(CNC(=O)Cc2cccc3ccccc23)ncn1 [Compound 17]	
6.7 ± 0.03	13 ± 7.9	Cc1noc(-c2cccn3c(CNC(=O)c4cc(-c5cccs5)n[nH]4)nnc23)n1 [Compound 18]	
3.8 ± 3.5	17.8 ± 13.7	O=C(NCc1nnc2c(C(F)(F)F)cccn12)c1cc(-c2cccs2)n[nH]1 [Compound 19]	
-7.2 ± 7.7	11.1 ± 4.4	COc1ccc(C(=O)C2OC2c2cc3ccccc3o2)c(OCc2ccccc2)c1 (stereo not shown) [Compound 22]	
-2.9 ± 1.8	11.9 ± 6.2	O=c1cc(-c2ccccc2)c2cc(Cl)c(OCC3CO3)cc2o1 (stereo not shown) [Compound 23]	
0.8 ± 3.3	17.7 ± 11.7	O=C(c1cc(F)ccc1OCc1ccccc1)C1OC1c1ccc2c(c1)OCCO2 (stereo not shown) [Compound 24]	
6.3 ± 4.6	10.6 ± 4.5	O=C(c1cc(Br)ccc1OCc1ccccc1)C1OC1c1cc2ccccc2o1 (stereo not shown) [Compound 26]	Ki [3]: 375 ± 20.5 µM
-0.5 ± 1.2	-2.4 ± 2	O=C(CN1Cc2ccccc2C1)NC1CCCN(Cc2cccc(O)c2)C1 (stereo not shown) [Compound 29]	
29.2 ± 7	20.9 ± 7.2	O=C(Nc1nc2c(s1)CN(Cc1ccccc1)CC2)c1ccc(-c2ccccc2)cc1 [Compound 31]	
6.9 ± 2.2	4.7 ± 3.2	O=C(Nc1nc2c(s1)CN(Cc1ccccc1)CC2)c1ccccc1 [Compound 32]	
	-3 ± 0.5	CC(=O)N1CCc2cc(C(=O)C(C)OC(=O)CCc3nc(-c4cccs4)no3)ccc21 (stereo not shown) [Compound 34]	
-3.4 ± 2.9	-2.1 ± 0.7	Cc1[nH]c(C(=O)NCCCc2nc3ccccc3[nH]2)c(C)c1C(=O)OC(C)C [Compound 37]	
17.1 ± 7.2	6.1 ± 0.7	Cc1nc(C2OC2C(=O)c2ccccc2OCc2ccccc2)cs1 (stereo not shown) [Compound 39]	Ki [4]: 403 ± 79.7 µM; Cathepsin L Ki′ (µM) [3]: 725.7 ± 142.3^e µM; Ki [3]: 726 ± 142 µM
11.1 ± 11.5	1.1 ± 4.9	COC(=O)N1CCC(CNC(=O)NCc2cccc3ccccc23)CC1 [Compound 44]	
9.2 ± 6.4	3.3 ± 2.4	COC(=O)N1CCC(CNC(=O)NC(c2ccccc2)c2ccccc2)CC1 [Compound 45]	
20.4 ± 14.5	5.7 ± 3.6	O=C(NCC1CCN(C(=O)Oc2ccccc2)CC1)c1ccccc1 [Compound 48]	Ki [4]: 1190 ± 468 µM; Ki [3]: 1190 ± 357 µM
22.9 ± 1	12.9 ± 0.5	Cc1cc(OCc2ccccc2)c(C(=O)C2OC2c2csc(-c3ccccc3)n2)cc1C (stereo not shown) [Compound 49]	Ki [4]: 303 ± 11.3 µM; Ki [3]: 546 ± 114 µM
0.3 ± 8.8	-0.7 ± 1.5	COC(=O)Cc1c[nH]c2ccc(OCC(O)CNC(C)C)cc12 (stereo not shown) [Compound 52]	
